One data set deals with A549 cells. The data set can be described thus: MTT assay, metabolic activity of A549 cells. It is filed as cell-based, human. As to conditions: for IC50: Homo sapiens; for SI, selectivity index: 48 h, IC50 CCD-18Co / IC50 A549. As to the method: (§1) The effect of acridine-benzohydrazides (3a–3d) on the metabolic activity of the lung adenocarcinoma cell line (A549) and the normal colon fibroblast cell line (CCD-18Co) was evaluated using a 3-(4,5-dimethylthiazol-2-yl)-2,5-diphenyltertrazolium bromide (MTT) cell assay. This assay is based on the metabolization of yellow MTT to purple formazan crystal by mitochondrial dehydrogenases, and therefore only metabolic active cells are capable of that reaction. The CCD-18Co cell line was used as a control to check for derivatives selectivity. The doxorubicin belongs to a group of anthracyclines, which represent the chemotherapeutic regiments for the treatment of NSCLC (non-small cell lung carcinoma) even today, and acts as antineoplastic mainly by interaction with the DNA topoisomerase II and by creating DNA single- and double-strand breaks. Previous studies described detailed cytotoxic effects of doxorubicin in the human lung adenocarcinoma A549 cell line. Doxorubicin resembles our compounds in its biological action; therefore, it was employed as a positive control.
(§2) Human lung carcinoma cell line A549 and CCD-18Co colon fibroblasts were purchased from the American Type Culture Collection (ATCC, Rockville, MD, USA). The A549 cells were cultured in a complete RPMI-1640 medium (Sigma-Aldrich, St. Louis, MO, USA) and CCD-18Co cells were cultured in a minimum essential medium (MEM) (PAN-Biotech GmbH, Aidenbach, Germany) at 37 °C, 95% humidity and 5% CO2. The media were supplemented with 10% fetal bovine serum (FBS, Biosera, Nuaille, France) and antibiotics (1% Antibiotic-Antimycotic 100 × and 50 × 10^−3 g L^−1 gentamicin, Biosera). Prior to the selected treatments, cells were seeded on 6- and/or 96-well plates (TPP, Trasadingen, Switzerland) and left to settle for 24 h. The acridine compounds solutions (at concentrations ranging from 5–75 µM) were then added to cells for 24 or 48 h, and analysis was subsequently performed.
(§3) MTT assays were performed in order to evaluate changes in the metabolic activity of cells that had occurred as a consequence of treatment with the acridine compounds. A549 cells (15 × 10^3 cells/cm^2) and CCD-18Co (15.625 × 10^3 cells/cm^2) were seeded in 96-well microplates. The A549 cells were treated for 24 and 48 h, and the CCD-18Co cells were treated for 48 h with different concentrations (5, 25, 50 and 75 µM) of the derivatives. After the treatment, the MTT (3-(4,5-dimethylthiazol-2-yl)-2,5-diphenyltertrazolium bromide) solution in PBS (5 mg mL^−1) was added to each well. The reaction was stopped after 4 h incubation, and the formazan was dissolved by the addition of SDS at a final concentration of 3.3%. The absorbance of formazan (λ = 584 nm) was measured using a BMG FLUOstar Optima spectrometer (BMG Labtech GmbH, Offenburg, Germany). The results were evaluated as percentages of the absorbance of the untreated control. Results are presented as the average percentage of cells from three independent experiments. IC50 values for the derivatives were extrapolated from a sigmoidal fit (dose-response curve) to the metabolic activity data using OriginPro 8.5.0 SR1 (OriginLab Corp., Northampton, MA, USA).

In another data set the test system is CCD-18Co cells. The data set can be described thus: MTT assay, metabolic activity of CCD-18Co fibroblasts. It is filed as cell-based, human. As to conditions: 48 h; for IC50: Homo sapiens, CCD-18Co. As to the method:
as §1, §2, §3

For a further data set, the target named is T1, hTopo I (Homo sapiens, UniProt P11387).
T1 sequence (P11387 1-765): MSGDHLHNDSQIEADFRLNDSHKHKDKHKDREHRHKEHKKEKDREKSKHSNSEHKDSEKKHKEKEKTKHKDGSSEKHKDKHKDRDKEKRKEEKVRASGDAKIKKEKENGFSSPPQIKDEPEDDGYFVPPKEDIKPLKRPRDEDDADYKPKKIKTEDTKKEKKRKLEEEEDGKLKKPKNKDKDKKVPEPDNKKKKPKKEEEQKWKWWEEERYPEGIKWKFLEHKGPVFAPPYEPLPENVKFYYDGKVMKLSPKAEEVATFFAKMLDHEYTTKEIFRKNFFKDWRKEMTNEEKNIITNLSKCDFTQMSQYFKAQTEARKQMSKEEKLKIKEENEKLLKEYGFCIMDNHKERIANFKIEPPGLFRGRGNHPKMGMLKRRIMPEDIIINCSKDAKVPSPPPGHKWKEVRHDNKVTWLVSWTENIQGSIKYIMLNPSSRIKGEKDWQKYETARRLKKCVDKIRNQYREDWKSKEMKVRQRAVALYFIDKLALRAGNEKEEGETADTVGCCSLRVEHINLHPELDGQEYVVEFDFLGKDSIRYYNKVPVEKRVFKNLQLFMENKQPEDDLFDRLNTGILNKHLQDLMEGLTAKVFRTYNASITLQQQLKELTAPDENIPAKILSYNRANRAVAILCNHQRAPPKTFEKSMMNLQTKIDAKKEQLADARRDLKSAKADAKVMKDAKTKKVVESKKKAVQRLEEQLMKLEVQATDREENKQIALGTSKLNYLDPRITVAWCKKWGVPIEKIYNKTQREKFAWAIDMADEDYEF
The experiment in a line: Topo I DNA relaxation assay. It is filed as biochemical. The following applies: 25, 50 and 100 μM; pBR322. The text has this: Topo I enzymes convert the supercoiled (SC) form DNA to relaxed (R) form and nicked-open-circular (NOC) DNA. The NOC form is circular dsDNA with one nicked strength; Topo I nicked only one strength. SC form DNA migrate the fastest in gel, NOC migrates the slowest, and the migration speed of R DNA is in the middle of these two forms. In an electrophoretogram with active Topo I enzymes, SC DNA is not observed, but R and NOC DNA forms can be seen. In the case of Topo I inhibition, bends for R and NOC DNA forms are not observed. The results electrophoretogram effect of derivatives 3a–3d on activity topoisomerase I show Figure 12A.
Figure 12 The result of Topo I/IIα activity tests in the presence of derivatives 3a–3d. (A) Electrophoretogram for inhibition relaxation activity of hTopo I (2.5 U) by derivatives 3a–3d in concentrations of 25, 50 and 100 μM (lane 5–16), substrate-free SC pBR322 (0.5 μg) (lane 4), camptothecin (CPT, lane 2) and plasmid+hTopo I control (lane 3). (NOC—nicked-opened DNA form; R—relaxed DNA form; SC—supercoiled DNA form). (B) Electrophoretogram for inhibition decatenation activity of hTopo IIα (0.5 U) by derivatives 3a–3d in concentrations of 25, 50 and 100 μM (lane 5–16), substrate-free catenated kinetoplast DNA (cat kDNA) (0.5 μg) (lane 4), m-Amsacrine (AMSA, lane 2) and plasmid +hTopo IIα control (lane 3). (decat DNA—decatenated DNA; NC—nicked circular DNA form; L—linear DNA form).

Compound `O=C(N/N=C/c1cccc2cc3ccccc3nc12)c1ccccc1` [3a, N′-[(E)-(Acridin-4-yl)methylidene]benzohydrazide] displayed a melting point of 235 to 236 °C. The compound further had an IC50 in the data set with A549 cells (A549, 24 h) of over 75 µM. Besides, 43 µM corresponded to half-maximal inhibition in the data set with A549 cells (A549, 48 h) (IC50). For the same compound, in the data set with CCD-18Co cells (from IC50), the “times less activity than doxorubicin in CCD18-Co” value is over 15. Also, the IC50 with CCD-18Co cells is over 75 µM. Moreover, at hTopo I, the “inhibition of relaxation activity of Topo I” value (shortened to “inhibition”) is given as “did not have the potential to inhibit”.
Turning to `O=C(N/N=C/c1cccc2cc3ccccc3nc12)c1ccc(F)cc1` [3b, N′-[(E)-Acridin-4-ylmethylidene]-4-fluorobenzohydrazide], the melting point was 229 to 230 °C. In the data set on A549 cells, the “SI, selectivity index” value was found to be 0.22. Further, in the data set on A549 cells (A549, 24 h), the IC50 was over 75 µM. Further, the IC50 with A549 cells (A549, 48 h) was found to be 37 µM. This compound also registered an IC50 in the data set with CCD-18Co cells of 8 µM. Further, at hTopo I, the “inhibition” value is on record as “did not have the potential to inhibit”.
`O=C(N/N=C/c1cccc2cc3ccccc3nc12)c1ccc(Cl)cc1` [3c, N′-[(E)-Acridin-4-ylmethylidene]-4-chlorobenzohydrazide] came in with a melting point of 266 to 267 °C. Further, in the data set with A549 cells, the “SI, selectivity index” value is 0.36. Besides, in the data set on A549 cells (A549, 24 h), the IC50 is 73 µM. The compound also returned a half-inhibitory concentration (IC50) in the data set with A549 cells (A549, 48 h) of 45 µM. In the data set on CCD-18Co cells, this compound registered a concentration for half-maximal inhibition (IC50) of 16 µM. Also, the “inhibition” value against hTopo I was “might inhibit the relaxation activity of Topo I”.
Consider `O=C(N/N=C/c1cccc2cc3ccccc3nc12)c1ccc(Br)cc1` [3d, N′-[(E)-Acridin-4-ylmethylidene]-4-bromobenzohydrazide], for which the melting point lay in the range of 269 to 270 °C. Besides, the “SI, selectivity index” value in the data set on A549 cells stood at 0.31. In addition, the IC50 in the data set on A549 cells (A549, 24 h) was over 75 µM. This compound also came in with a half-maximal inhibitory concentration (IC50) in the data set on A549 cells (A549, 48 h) of 55 µM. This compound showed an IC50 in the data set with CCD-18Co cells of 17 µM. The “inhibition” value at hTopo I is given as “might inhibit the relaxation activity of Topo I”.

For the origin of these results see paper PMC9100673, “Acridine Based N-Acylhydrazone Derivatives as Potential Anticancer Agents: Synthesis, Characterization and ctDNA/HSA Spectroscopic Binding Properties” (Molecules, 2022).
